{
  "source": "paper PMC9146161",
  "about": "“Novel Thienyl-Based Tyrosine Kinase Inhibitors for the Treatment of Hepatocellular Carcinoma” (Journal of Personalized Medicine, 2022)",
  "target": "T1, VEGFR-2 (Homo sapiens, UniProt P35968)",
  "T1 construct": "gene KDR",
  "T1 sequence (P35968 20-1356)": "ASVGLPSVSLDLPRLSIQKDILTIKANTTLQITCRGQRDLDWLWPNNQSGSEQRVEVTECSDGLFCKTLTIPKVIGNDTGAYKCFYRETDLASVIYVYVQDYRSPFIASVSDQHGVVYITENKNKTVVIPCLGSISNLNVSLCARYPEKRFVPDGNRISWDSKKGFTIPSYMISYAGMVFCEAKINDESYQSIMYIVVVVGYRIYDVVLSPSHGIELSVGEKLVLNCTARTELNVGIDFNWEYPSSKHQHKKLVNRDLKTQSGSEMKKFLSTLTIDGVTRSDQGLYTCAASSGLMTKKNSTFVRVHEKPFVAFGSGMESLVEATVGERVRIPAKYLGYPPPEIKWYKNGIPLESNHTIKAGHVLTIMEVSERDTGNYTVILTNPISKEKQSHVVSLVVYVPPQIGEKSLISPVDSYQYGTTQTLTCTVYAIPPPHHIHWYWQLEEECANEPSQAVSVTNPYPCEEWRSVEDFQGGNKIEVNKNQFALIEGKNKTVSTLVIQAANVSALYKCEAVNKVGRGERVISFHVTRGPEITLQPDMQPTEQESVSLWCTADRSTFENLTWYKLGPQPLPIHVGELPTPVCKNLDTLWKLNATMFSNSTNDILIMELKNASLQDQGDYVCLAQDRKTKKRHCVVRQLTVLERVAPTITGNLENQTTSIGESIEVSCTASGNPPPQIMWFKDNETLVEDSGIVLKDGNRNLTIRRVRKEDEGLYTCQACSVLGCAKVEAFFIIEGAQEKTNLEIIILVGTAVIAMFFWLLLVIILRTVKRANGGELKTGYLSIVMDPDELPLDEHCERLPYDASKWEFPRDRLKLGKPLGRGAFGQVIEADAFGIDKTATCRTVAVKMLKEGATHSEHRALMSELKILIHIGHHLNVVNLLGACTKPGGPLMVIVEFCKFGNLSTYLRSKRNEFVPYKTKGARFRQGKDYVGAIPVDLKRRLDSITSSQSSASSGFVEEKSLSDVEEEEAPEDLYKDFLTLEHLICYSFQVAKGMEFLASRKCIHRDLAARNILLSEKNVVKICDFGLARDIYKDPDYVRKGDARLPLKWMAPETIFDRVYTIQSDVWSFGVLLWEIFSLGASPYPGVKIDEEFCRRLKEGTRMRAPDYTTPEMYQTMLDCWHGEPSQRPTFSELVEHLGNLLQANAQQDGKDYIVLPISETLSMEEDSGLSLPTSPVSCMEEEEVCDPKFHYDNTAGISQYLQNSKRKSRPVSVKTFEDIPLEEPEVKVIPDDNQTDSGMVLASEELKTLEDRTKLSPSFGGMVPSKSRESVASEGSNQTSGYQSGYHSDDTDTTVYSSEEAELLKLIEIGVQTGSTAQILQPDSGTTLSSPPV",
  "assay": "cell-free enzymatic kinase assay (Eurofins KinaseProfiler), dose-response […]",
  "format": "biochemical",
  "data": [
    {"smiles": "COc1ccc(/C=C(\\C#N)c2cccs2)cc1O", "note": "[Thio-Iva]", "values": [
      {"measurement": "IC50", "value": 3.31, "unit": "µM"}
    ]}
  ]
}
